These compounds were tested on TGF-b induced Endothelin-1 production (assay: ET-1 assay: inhibitory effect on TGF-b induced endothelin-1 production). Settings: Homo sapiens, Fibroblast; fibroblasts, stimulant (TGFb, serum, LPA etc), ET-1 in media by ELISA, 4-parameter fit.
Format: cell-based
Protocol: Assay of Inhibitory Effect on TGF-b Induced Endothelin-1 Production
Fibroblasts (primary human lung and dermal, HFL-1, 3T3 etc) are seeded in 96-well plates at ˜15000 cells/well and serum starved for 0-48 hours. After media exchange, compounds serially diluted in DMSO are added to the cells. After a brief incubation of ˜30 min, stimulants (TGFb, serum, LPA etc) are added followed by further incubation for 16-48 hours. Media is then harvested and stored frozen in plate format for later endothelin-1 (ET-1) determination by ELISA. Toxicity measurements are made using the ATPlite kit (Perkin-Elmer). ET-1 is quantified using an ELISA kit (R&D Systems). The amount of ET-1 produced in the assay wells are back-calculated using the ELISA standard. The ability of a compound to inhibit ET-1 production is typically analyzed by fitting dose-response curves to a 4-parameter logistic function to obtain an EC50 value. A measure of cytotoxicity (CC50) is likewise reported from the same experiment using the ATPlite data.
Compounds of some embodiments were prepared according to synthetic methods described herein and assay data obtained for EC50 against ET-1. The assay data obtained is presented in Table 2, in which A=less than 50 μM, B=greater than or equal to 50 μM and less than or equal to 200 μM; and C=greater than 200 μM.

| Structure (SMILES) | EC50 [µM] |
| --- | --- |
| Cc1cc(=O)n(-c2ccccc2F)cc1-c1ccc(F)cc1 [Compound 178] | 50 to 200 |
| Cc1cc(=O)n(-c2ccc(Cl)cc2)cc1-c1ccc(F)cc1 [Compound 181] | > 200 |
| Cc1cc(=O)n(-c2ccc3c(c2)OCCO3)cc1-c1ccc(F)cc1 [Compound 182] | > 200 |
| Cc1cc(=O)n(-c2ccc3c(c2)OCO3)cc1-c1ccc(F)cc1 [Compound 183] | > 200 |
| Cc1cc(=O)n(-c2ccc(OC(F)(F)F)cc2C)cc1-c1ccc(F)cc1 [Compound 186] | < 50 |
| Cc1cc(=O)n(-c2cccc(N)c2)cc1-c1ccc(F)cc1 [Compound 187] | 50 to 200 |
| CNC(=O)c1cccc(-n2cc(-c3ccc(F)cc3)c(C)cc2=O)c1 [Compound 190] | 50 to 200 |
| Cc1cc(=O)n(-c2ccc(OC(F)(F)F)cc2)cc1-c1cccc(Cl)c1 [Compound 191] | 50 to 200 |
| CCOc1ccc(-n2cc(-c3cccc(F)c3)c(C)cc2=O)c(C)c1 [Compound 193] | 50 to 200 |
| Cc1cc(=O)n(-c2ccc(OC(F)(F)F)cc2)cc1-c1ccccc1F [Compound 194] | < 50 |
| Cc1cc(=O)n(-c2ccc(OC(F)(F)F)cc2)cc1-c1ccc(Cl)c(Cl)c1 [Compound 197] | 50 to 200 |
| CCc1cc(=O)n(-c2ccc(OC(F)(F)F)cc2)cc1-c1ccc(F)cc1 [Compound 199] | 50 to 200 |
| CC(C)c1cc(=O)n(-c2ccc(OC(F)(F)F)cc2)cc1-c1ccc(F)cc1 [Compound 200] | 50 to 200 |
| O=c1cc(C(F)(F)F)c(-c2ccc(F)cc2)cn1-c1ccc(OC(F)(F)F)cc1 [Compound 205] | 50 to 200 |
| Cc1cc(=O)n(-c2ccc(OC(F)(F)F)cc2)cc1-c1ccc2c(c1)OC(C)(C)O2 [Compound 211] | > 200 |
| Cc1cc(=O)n(-c2ccc(F)cc2)cc1-c1ccc(OC(F)(F)F)cc1 [Compound 212] | 50 to 200 |
| Cc1cc(=O)n(-c2ccc(OC(F)(F)F)cc2)cc1-c1ccc(F)cc1 [Compound 213] | > 200 |
| Cc1cc(=O)n(-c2ccccc2C)cc1-c1ccc(F)cc1 [Compound 214] | 50 to 200 |
| CC(=O)Nc1cccc(-n2cc(-c3cn[nH]c3)c(C)cc2=O)c1 [Compound 217] | > 200 |
| COc1cc(-n2cc(-c3cn[nH]c3)c(C)cc2=O)cc(OC)c1OC [Compound 220] | > 200 |
| COc1cc(-n2cc(-c3cnn(C)c3)c(C)cc2=O)cc(OC)c1OC [Compound 221] | > 200 |
| Cc1cc(=O)n(-c2ccc3c(c2)OCCO3)cc1-c1cnn(C)c1 [Compound 222] | > 200 |

| Structure (SMILES) | EC50 [µM] |
| --- | --- |
| Cc1cc(=O)n(-c2ccc3c(c2)OCO3)cc1-c1cnn(C)c1 [Compound 223] | > 200 |
| Cc1cc(=O)n(-c2ccc3ocnc3c2)cc1-c1cnn(C)c1 [Compound 224] | > 200 |
| Cc1cc(=O)n(-c2ccc3scnc3c2)cc1-c1cnn(C)c1 [Compound 225] | > 200 |
| Cc1cc(=O)n(-c2cccc(C(F)(F)F)c2)cc1-c1cnn(C)c1 [Compound 226] | > 200 |
| Cc1cc(=O)n(-c2cccc(OC(F)(F)F)c2)cc1-c1cnn(C)c1 [Compound 227] | > 200 |
| Cc1cc(=O)n(-c2ccc(C(F)(F)F)cc2)cc1-c1cnn(C)c1 [Compound 228] | 50 to 200 |
| Cc1cc(=O)n(-c2ccccc2F)cc1-c1cnn(C)c1 [Compound 230] | > 200 |
| Cc1cc(=O)n(-c2cccc3c2OCCO3)cc1-c1cnn(C)c1 [Compound 231] | 50 to 200 |
| Cc1cc(=O)n(-c2cccc3c2OCO3)cc1-c1cnn(C)c1 [Compound 232] | > 200 |
| Cc1cc(=O)n(-c2ccc3[nH]cnc3c2)cc1-c1cnn(C)c1 [Compound 233] | > 200 |
| CCc1cc(=O)n(-c2ccc(OC(F)(F)F)cc2)cc1-c1cnn(C)c1 [Compound 235] | 50 to 200 |
| CC(C)c1cc(=O)n(-c2ccc(OC(F)(F)F)cc2)cc1-c1cnn(C)c1 [Compound 236] | 50 to 200 |
| Cn1cc(-c2cn(-c3ccc(OC(F)(F)F)cc3)c(=O)cc2C(F)(F)F)cn1 [Compound 240] | > 200 |
| Cc1cc(=O)n(-c2ccc(OC(F)(F)F)cc2)cc1-c1cccnc1 [Compound 241] | > 200 |
| Cc1cc(=O)n(-c2ccc(OC(F)(F)F)cc2)cc1-c1ccncc1 [Compound 242] | > 200 |
| Cc1cc(=O)n(-c2ccc(OC(F)(F)F)cc2)cc1-n1ccnc1 [Compound 244] | > 200 |
| Cc1cc(=O)n(-c2ccc(OC(F)(F)F)cc2)cc1-c1ccnn1C [Compound 247] | > 200 |
| Cc1cc(=O)n(-c2ccc(OC(F)(F)F)cc2)cc1-c1cnc2nccn2c1 [Compound 248] | > 200 |
| Cc1cc(=O)n(-c2ccc(OC(F)(F)F)cc2)cc1-c1ccc2cn(C)nc2c1 [Compound 250] | 50 to 200 |
| Cc1cc(=O)n(-c2ccc(OC(F)(F)F)cc2)cc1-c1nn[nH]n1 [Compound 253] | > 200 |
| Cc1cc(=O)n(-c2ccc(OC(F)(F)F)cc2)cc1-c1ccc2c(ccn2C)c1 [Compound 255] | > 200 |
| Cc1cc(=O)n(-c2ccc(OC(F)(F)F)cc2)cc1-c1nnn(C)n1 [Compound 256] | > 200 |

| Structure (SMILES) | EC50 [µM] |
| --- | --- |
| Cc1cc(=O)n(-c2ccc(OC(F)(F)F)cc2)cc1-c1nnnn1C [Compound 257] | > 200 |
| Cc1cc(=O)n(-c2ccc(OC(F)(F)F)cc2)cc1-c1cnsc1 [Compound 264] | > 200 |
| O=c1ccc(Br)cn1-c1ccc(F)cc1 [Compound 265] | > 200 |
| COc1cccc(-n2cc(Br)ccc2=O)c1 [Compound 266] | > 200 |
| CC(C)Oc1ccc(-n2cc(Br)ccc2=O)cc1 [Compound 267] | > 200 |
| O=c1ccc(Br)cn1-c1cccc(C(F)(F)F)c1 [Compound 268] | > 200 |
| O=c1ccc(Br)cn1-c1ccc(Cl)cc1 [Compound 269] | > 200 |
| O=c1ccc(Br)cn1-c1ccc(OC(F)(F)F)cc1 [Compound 270] | > 200 |
| CC(=O)Nc1cccc(-n2cc(Br)ccc2=O)c1 [Compound 271] | > 200 |
| O=c1ccc(Br)cn1-c1cccc(F)c1 [Compound 272] | > 200 |
| CCOc1ccc(-n2cc(Br)ccc2=O)c(C)c1 [Compound 273] | > 200 |
| O=c1ccc(C(F)(F)F)cn1-c1cccc(F)c1 [Compound 274] | > 200 |
| O=c1ccc(C(F)(F)F)cn1-c1ccc(OC(F)(F)F)cc1 [Compound 275] | > 200 |
| CC(=O)Nc1cccc(-n2cc(C(F)(F)F)ccc2=O)c1 [Compound 277] | > 200 |
| O=c1ccc(C(F)(F)F)cn1-c1cncnc1 [Compound 279] | > 200 |
| O=c1ccc(C(F)(F)F)cn1-c1ccccc1Cl [Compound 281] | > 200 |
| Cc1ccc(=O)n(-c2ccccc2F)c1 [Compound 283] | > 200 |
| C#Cc1ccc(=O)n(-c2ccccc2)c1 [Compound 287] | > 200 |
| CC(C)Oc1ccc(-n2cc(-c3ccc(F)cc3)ccc2=O)cc1 [Compound 288] | 50 to 200 |
| O=c1ccc(-c2ccc(F)cc2)cn1-c1cccc(C(F)(F)F)c1 [Compound 289] | 50 to 200 |
| O=c1ccc(-c2ccc(F)cc2)cn1-c1ccccc1Cl [Compound 291] | > 200 |
| O=c1ccc(-c2ccccc2)cn1-c1ccc(F)cc1 [Compound 294] | 50 to 200 |

| Structure (SMILES) | EC50 [µM] |
| --- | --- |
| O=c1ccc(-c2ccccc2)cn1-c1cccc(F)c1 [Compound 296] | > 200 |
| CCOc1ccc(-n2cc(-c3ccccc3)ccc2=O)c(C)c1 [Compound 298] | 50 to 200 |
| O=c1ccc(-c2ccccc2)cn1-c1ccncc1 [Compound 299] | > 200 |
| O=c1ccc(-c2ccccc2)cn1-c1ccccc1Cl [Compound 302] | 50 to 200 |
| COc1ccc(-c2ccc(=O)n(-c3ccc(Cl)cc3)c2)cc1 [Compound 303] | 50 to 200 |
| COc1ccc(-c2ccc(=O)n(-c3cccc(OC)c3)c2)cc1 [Compound 309] | 50 to 200 |
| COc1ccc(-c2ccc(=O)n(-c3ccccc3Cl)c2)cc1 [Compound 310] | 50 to 200 |
| COc1ccc(-c2ccc(=O)n(-c3cncnc3)c2)cc1 [Compound 311] | > 200 |
| COc1ccc(-c2ccc(=O)n(-c3ccccc3F)c2)cc1 [Compound 312] | > 200 |
| O=c1ccc(-c2cccc(Cl)c2)cn1-c1ccccc1 [Compound 313] | 50 to 200 |
| O=c1ccc(-c2cccc(Cl)c2)cn1-c1ccc(Cl)cc1 [Compound 314] | < 50 |
| COc1ccc(-n2cc(-c3cccc(Cl)c3)ccc2=O)cc1 [Compound 315] | < 50 |
| O=c1ccc(-c2cccc(Cl)c2)cn1-c1cccc(C(F)(F)F)c1 [Compound 318] | < 50 |
| COc1cccc(-n2cc(-c3cccc(Cl)c3)ccc2=O)c1 [Compound 319] | < 50 |
| O=c1ccc(-c2cccc(Cl)c2)cn1-c1cccc(F)c1 [Compound 320] | < 50 |
| CCOc1ccc(-n2cc(-c3cccc(Cl)c3)ccc2=O)c(C)c1 [Compound 321] | < 50 |
| O=c1ccc(-c2cccc(Cl)c2)cn1-c1ccccc1Cl [Compound 322] | < 50 |
| O=c1ccc(-c2cccc(Cl)c2)cn1-c1ccncc1 [Compound 323] | > 200 |
| O=c1ccc(-c2cccc(Cl)c2)cn1-c1ccccc1F [Compound 324] | 50 to 200 |
| NS(=O)(=O)c1ccc(-c2ccc(=O)n(-c3ccc(Cl)cc3)c2)cc1 [Compound 327] | > 200 |

— US10233195B2, “Anti-fibrotic pyridinones” (InterMune, Inc., priority 2014, dated 2019)
